This note sets out measurements from article PMC5765548 (Journal of medicinal chemistry, 2017).

The structures appear in SMILES notation.

Assay [1] concerns the target T1, ALDH1L1 (rat) (Rattus norvegicus, UniProt P28037).
T1 sequence (P28037 1-902): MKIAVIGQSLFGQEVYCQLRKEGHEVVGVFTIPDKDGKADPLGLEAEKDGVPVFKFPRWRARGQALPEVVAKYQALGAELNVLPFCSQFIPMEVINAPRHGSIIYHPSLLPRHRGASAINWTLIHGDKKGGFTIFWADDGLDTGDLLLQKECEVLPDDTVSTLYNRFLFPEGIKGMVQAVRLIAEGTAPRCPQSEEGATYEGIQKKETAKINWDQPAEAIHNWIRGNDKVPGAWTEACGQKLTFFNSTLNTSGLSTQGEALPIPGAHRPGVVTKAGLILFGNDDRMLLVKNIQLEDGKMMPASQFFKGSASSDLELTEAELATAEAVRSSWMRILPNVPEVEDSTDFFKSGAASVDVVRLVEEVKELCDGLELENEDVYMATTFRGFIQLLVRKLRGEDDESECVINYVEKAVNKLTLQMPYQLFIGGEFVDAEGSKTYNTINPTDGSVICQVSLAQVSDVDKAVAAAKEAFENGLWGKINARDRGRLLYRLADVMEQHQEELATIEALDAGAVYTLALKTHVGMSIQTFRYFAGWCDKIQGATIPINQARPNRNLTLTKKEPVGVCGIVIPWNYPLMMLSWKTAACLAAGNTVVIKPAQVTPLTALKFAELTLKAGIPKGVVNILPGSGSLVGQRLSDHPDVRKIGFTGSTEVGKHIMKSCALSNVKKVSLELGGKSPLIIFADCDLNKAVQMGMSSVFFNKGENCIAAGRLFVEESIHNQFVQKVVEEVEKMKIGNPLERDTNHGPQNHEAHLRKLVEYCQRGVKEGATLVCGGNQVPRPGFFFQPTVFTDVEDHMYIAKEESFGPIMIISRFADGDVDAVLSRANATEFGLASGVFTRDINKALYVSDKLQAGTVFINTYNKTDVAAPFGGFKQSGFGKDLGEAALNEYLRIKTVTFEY
Kind of assay: ALDH1L1 dehydrogenase activity, NADPH formation at 340 nm. The class given is biochemical. Conditions: read-out: IC50 ALDH1L1 (rat); 4 mM propionaldehyde, 500 μM NADP+.

The target of assay [2] is T2, ALDH3A1 (Homo sapiens, UniProt P30838).
T2 sequence (P30838 1-453): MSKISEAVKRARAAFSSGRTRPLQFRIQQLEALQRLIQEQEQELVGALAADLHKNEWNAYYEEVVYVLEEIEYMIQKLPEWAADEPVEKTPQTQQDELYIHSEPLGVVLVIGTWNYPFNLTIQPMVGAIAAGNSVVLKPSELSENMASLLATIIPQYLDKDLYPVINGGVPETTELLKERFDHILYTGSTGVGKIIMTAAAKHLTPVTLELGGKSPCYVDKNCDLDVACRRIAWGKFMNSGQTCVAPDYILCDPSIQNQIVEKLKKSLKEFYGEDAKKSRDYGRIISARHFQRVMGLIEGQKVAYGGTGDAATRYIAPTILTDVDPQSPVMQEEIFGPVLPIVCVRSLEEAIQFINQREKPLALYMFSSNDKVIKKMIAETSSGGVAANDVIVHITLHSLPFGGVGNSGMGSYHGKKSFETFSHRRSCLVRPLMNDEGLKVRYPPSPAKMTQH
Kind of assay: ALDH3A1 dehydrogenase activity. The class given is biochemical. Conditions: read-out: IC50 ALDH3A1; 300 μM benzaldehyde, 300 μM NADP+, pH 7.5.

The target of assay [3] is T3, ALDH2 (Homo sapiens, UniProt P05091).
T3 sequence (P05091 18-517): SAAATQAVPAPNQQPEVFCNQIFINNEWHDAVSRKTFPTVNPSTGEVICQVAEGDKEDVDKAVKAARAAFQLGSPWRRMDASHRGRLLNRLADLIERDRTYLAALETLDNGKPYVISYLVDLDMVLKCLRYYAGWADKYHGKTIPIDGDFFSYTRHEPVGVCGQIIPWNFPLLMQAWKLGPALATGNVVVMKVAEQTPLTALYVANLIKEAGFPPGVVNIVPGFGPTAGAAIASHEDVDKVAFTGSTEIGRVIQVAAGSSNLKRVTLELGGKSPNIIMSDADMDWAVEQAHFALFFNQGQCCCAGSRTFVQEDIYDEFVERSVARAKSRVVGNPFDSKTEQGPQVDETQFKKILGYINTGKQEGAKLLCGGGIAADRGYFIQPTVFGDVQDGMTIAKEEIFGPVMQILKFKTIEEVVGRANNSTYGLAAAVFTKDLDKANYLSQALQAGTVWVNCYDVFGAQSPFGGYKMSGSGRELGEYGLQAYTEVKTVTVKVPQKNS
Conditions: 1 mM propionaldehyde.

The target in assay [4] is T4, ALDH1A1 (Homo sapiens, UniProt P00352).
T4 sequence (P00352 1-501): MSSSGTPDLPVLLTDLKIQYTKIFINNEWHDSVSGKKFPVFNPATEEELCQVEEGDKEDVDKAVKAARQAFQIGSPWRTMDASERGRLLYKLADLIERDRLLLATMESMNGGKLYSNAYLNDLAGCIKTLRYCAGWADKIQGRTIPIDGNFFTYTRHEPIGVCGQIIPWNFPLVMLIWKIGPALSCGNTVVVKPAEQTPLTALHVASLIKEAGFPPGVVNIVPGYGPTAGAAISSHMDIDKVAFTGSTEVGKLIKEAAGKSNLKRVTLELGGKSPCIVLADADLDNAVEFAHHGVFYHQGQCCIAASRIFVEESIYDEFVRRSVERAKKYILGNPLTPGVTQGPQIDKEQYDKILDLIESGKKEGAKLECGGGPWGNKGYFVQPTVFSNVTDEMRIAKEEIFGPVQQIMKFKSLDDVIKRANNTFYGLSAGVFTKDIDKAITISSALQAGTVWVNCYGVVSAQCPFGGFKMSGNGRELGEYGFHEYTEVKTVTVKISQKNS
Kind of assay: ALDH1A1 dehydrogenase activity, NADH formation at 340 nm. The format is biochemical. The conditions noted are these: for IC50: read-out: IC50 ALDH1A1, 100 μM propionaldehyde, 200 μM NAD+, 1% DMSO, pH 7.5, 25 °C; for inhibition at 10 µM: read-out: Inhibition of ALDH1A1 at 10 μM.

Assay [5] deals with T3, ALDH2. Kind of assay: ALDH2 dehydrogenase activity, NADH formation at 340 nm. Conditions: for Emax: read-out: Max inhibition ALDH2. The format is biochemical.
Assay [6] concerns the target T5, ALDH1A3 (Homo sapiens, UniProt P47895).
T5 sequence (P47895 1-512): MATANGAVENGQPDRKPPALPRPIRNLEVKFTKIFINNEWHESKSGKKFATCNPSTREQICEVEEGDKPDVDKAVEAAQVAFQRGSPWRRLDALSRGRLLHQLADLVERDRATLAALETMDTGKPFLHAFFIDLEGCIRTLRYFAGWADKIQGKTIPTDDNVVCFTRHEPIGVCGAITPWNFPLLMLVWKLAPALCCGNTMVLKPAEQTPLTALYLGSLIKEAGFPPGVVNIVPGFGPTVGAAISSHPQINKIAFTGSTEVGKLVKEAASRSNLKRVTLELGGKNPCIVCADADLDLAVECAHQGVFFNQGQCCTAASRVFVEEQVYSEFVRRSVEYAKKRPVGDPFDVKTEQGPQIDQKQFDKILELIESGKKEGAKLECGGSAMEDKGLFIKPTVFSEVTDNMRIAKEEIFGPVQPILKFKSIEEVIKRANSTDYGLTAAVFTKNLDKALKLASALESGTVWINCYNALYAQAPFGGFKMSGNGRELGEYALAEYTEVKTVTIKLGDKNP
The conditions noted are these: read-out: IC50 ALDH1A3; 100 μM propionaldehyde, 200 μM NAD+, 1% DMSO, pH 7.5, 25 °C.

Assay [7] addresses T4, ALDH1A1. Conditions: for Mode of inhibition of ALDH1A1 versus varied NAD+: 1 mM propionaldehyde.
Assay [8] addresses T6, ALDH1B1 (Homo sapiens, UniProt P30837).
T6 sequence (P30837 18-517): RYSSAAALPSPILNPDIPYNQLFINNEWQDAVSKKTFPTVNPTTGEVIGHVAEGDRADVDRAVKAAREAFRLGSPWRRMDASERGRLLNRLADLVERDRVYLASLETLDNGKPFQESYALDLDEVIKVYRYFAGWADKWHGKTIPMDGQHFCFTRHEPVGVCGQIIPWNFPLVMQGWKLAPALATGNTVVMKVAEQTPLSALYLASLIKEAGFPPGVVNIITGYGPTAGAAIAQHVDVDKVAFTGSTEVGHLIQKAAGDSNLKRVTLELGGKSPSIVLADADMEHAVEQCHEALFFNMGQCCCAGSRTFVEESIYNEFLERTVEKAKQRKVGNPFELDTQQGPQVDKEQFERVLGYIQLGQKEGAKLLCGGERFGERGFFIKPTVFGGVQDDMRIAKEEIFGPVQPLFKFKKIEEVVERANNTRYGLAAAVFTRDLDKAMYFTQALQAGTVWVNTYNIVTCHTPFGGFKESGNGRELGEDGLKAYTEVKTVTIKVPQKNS
The conditions noted are these: read-out: IC50 ALDH1B1; 200 μM propionaldehyde, 500 μM NAD+, 25 °C.

In assay [9] the target is T7, ALDH1A2 (Homo sapiens, UniProt O94788).
T7 sequence (O94788 1-518): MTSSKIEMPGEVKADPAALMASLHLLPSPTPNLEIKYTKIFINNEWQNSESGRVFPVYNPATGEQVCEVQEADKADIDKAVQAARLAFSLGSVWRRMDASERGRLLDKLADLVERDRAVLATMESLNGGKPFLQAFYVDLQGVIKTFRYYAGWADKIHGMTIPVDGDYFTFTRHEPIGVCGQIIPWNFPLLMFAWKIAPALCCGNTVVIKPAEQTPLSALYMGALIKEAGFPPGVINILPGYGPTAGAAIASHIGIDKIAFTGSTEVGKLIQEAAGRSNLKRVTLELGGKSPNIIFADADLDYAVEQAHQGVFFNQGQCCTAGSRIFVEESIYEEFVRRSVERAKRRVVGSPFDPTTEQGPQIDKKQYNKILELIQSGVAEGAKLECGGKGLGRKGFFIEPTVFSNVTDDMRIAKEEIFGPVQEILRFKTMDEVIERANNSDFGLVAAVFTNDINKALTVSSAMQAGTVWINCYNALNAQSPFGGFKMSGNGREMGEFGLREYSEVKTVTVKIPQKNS
Conditions: read-out: IC50 ALDH1A2; 100 μM propionaldehyde, 200 μM NAD+, 1% DMSO, pH 7.5, 25 °C.

In general, IC50 refers to the concentration at which inhibition is half-maximal. For the molecule `CCCc1c(C)c2cc3c(C)coc3cc2oc1=O` [Compound 1], the IC50 in assay [1] and in assay [2] was above 100 µM each time.
Regarding `CCCc1c(C)c2cc3c(C)c(C)oc3cc2oc1=O` [Compound 2], the IC50 in assay [1] and in [2] was above 100 µM each time. Besides, the “Mode of inhibition of ALDH2 versus varied NAD+” value in assay [3] is “competitive”.
For `CCCc1cc(=O)oc2cc3oc(C)c(C)c3cc12` [Compound 7], the IC50 in assay [4] and in [2] was above 100 µM in each case.
As to `Cc1oc2cc3oc(=O)c4ccccc4c3cc2c1C` [Compound 9], the IC50 in assay [4] and in [2] was above 100 µM in each case. Further, the Emax in assay [5] is 50 to 60%.
Turning to `Cc1oc2cc3oc(=O)c4c(c3cc2c1C)CCCC4` [Compound 10], the IC50 in assay [6] and in [2] was above 100 µM throughout.
Consider `Cc1oc2cc3oc(=O)c4c(c3cc2c1C)CCC4` [Compound 11], for which the IC50 in assay [2] is above 100 µM.
Broadly, the inhibition is the share of the control response that was lost under treatment. `Cc1oc2cc3oc(=O)c(CCC(=O)N4CCCCC4)c(C)c3cc2c1C` [Compound 15]: the inhibition at 10 µM in [4] and in assay [5] (read-out: Inhibition of ALDH2 at 10 μM) was above 90% throughout. The IC50 in assay [2] is above 100 µM. In [7], the “Mode of inhibition of ALDH1A1 versus varied NAD+” value is “uncompetitive”. Besides, the “Mode of inhibition of ALDH2 versus varied NAD+” value in [3] is given as “competitive”.
Take `Cc1c(C)c2c(cc(C)c3c(C)coc32)oc1=O` [Compound 23]: the IC50 in [4] and in assay [2] was above 100 µM each time. For the same molecule, the Emax in assay [5] fell in the range of 50 to 60%.
In the case of `Cc1cc(=O)oc2cc(OCC#N)ccc12` [Compound 30], in assay [7], the “Mode of inhibition of ALDH1A1 versus varied NAD+” value is recorded as “noncompetitive”. Moreover, the “Mode of inhibition of ALDH2 versus varied NAD+” value in assay [3] was “noncompetitive (mixed-type)”.
Consider `CCN(CC)c1ccc2c(C)cc(=O)oc2c1` [Compound 32], for which the “Fold selective for ALDH1A1 versus ALDH1A2” value in assay [4] was 10 fold. The inhibition at 10 µM in assay [4] was around 85%. For the same molecule, the IC50 in assay [6], in assay [8] and in [2] was above 100 µM each time. The “Mode of inhibition of ALDH1A1 versus varied acetaldehyde” value in assay [7] (1 mM NAD+, varied acetaldehyde) was “noncompetitive”. For the same molecule, in assay [7], the “Mode of inhibition of ALDH1A1 versus varied NAD+” value is “noncompetitive”.
For the molecule `Cc1c(Cc2ccccc2)c(=O)oc2cc(OS(C)(=O)=O)ccc12` [Compound 34], the IC50 in assay [2] was above 100 µM.
On to `C/C(=N\O)c1cc2cc(Br)ccc2oc1=O` [Compound 36], for which the 50% inhibitory concentration (IC50) in assay [4], in [9], in [8] and in assay [2] was above 100 µM throughout. In addition, the “Mode of inhibition of ALDH2 versus varied NAD+” value in [3] is given as “competitively”.
As to `O=c1c(-c2ccc(O)cc2)coc2cc(O[C@@H]3O[C@H](CO)[C@@H](O)[C@H](O)[C@H]3O)ccc12` [Daidzin, daidzin, reference compound], the IC50 in assay [1] and in assay [2] was above 100 µM in each case.
